One compound from patent publication US20120283802A1, “FAR-INFRARED RADIATION IN USE OF IMPROVING PATENCY OF ARTERIOVENOUS FISTULA, DECREASING FAILURE OF ARTERIOVENOUS FISTULA MATURATION, AND PREVENTING AND/OR AMELIORATING PERIPHERAL ARTERY DISEASES” (priority 2007, published 2012) can be followed below.

The test system of test [1] is VCAM-1 expression in HUVECs. The test is described as follows: TNF-α-induced VCAM-1 expression in HUVECs, western blot. It counts as cell-based, Human. Here is the method:
Human umbilical vein endothelial cells (HUVEC) (Walkersville, Md.) were serially cultured on gelatin-coated dishes and propagated in M199 medium supplemented with 20% bovine calf serum, 2 mM L-glutamine, 50 μg/ml endothelial cell growth factor, 90 μg/ml heparin, and 100 U/ml of penicillin and streptomycin. The cells were treated with FIR for 10 min, 20 min, 40 min using WS™ TY101 FIR emitter (WS Far Infrared Medical Technology Co., Ltd., Taipei, Taiwan). The top emitter was set at a height of 25 cm above the surface of the cells. After FIR treatment, the cells were collected at 0 h, 2 h, 4 h, 6 h, 24 h, and 48 h, and then the expression of HO-1 was analyzed by western blot and quantified by laser densitometry. The cells were lysed in a sample buffer (125 mM Tris [pH 6.8], 12.5% glycerol, 2% SDS, 50 mM sodium fluoride, and trace bromophenol blue) and proteins were separated by SDS-PAGE. Following transfer to a nitrocellulose membrane, blots were blocked with PBS and nonfat milk (5%) and then incubated with antibodies directed against HO-1 (1:500). Membranes were then washed in PBS, incubated with horseradish peroxidase-conjugated goat anti-rabbit or anti-goat antibody and developed with commercial chemoluminescence reagents (Amersham, Arlington Heights, Ill.). […]
The expression of VCAM-1 was analyzed under different combinations of TNFα, FIR, HO-1 inhibitor by a western blot. […]
Background: Immunoblotting shows a protein as a band on a membrane.

A further test relates to HO-1 expression. As to the kind of experiment: HO-1 expression by western blot quantified by laser densitometry. The following applies: relative to control cells; SnPP 20 μM per Table 2. It counts as cell-based, Human. Here is the method:
Human umbilical vein endothelial cells (HUVEC) (Walkersville, Md.) were serially cultured on gelatin-coated dishes and propagated in M199 medium supplemented with 20% bovine calf serum, 2 mM L-glutamine, 50 μg/ml endothelial cell growth factor, 90 μg/ml heparin, and 100 U/ml of penicillin and streptomycin. The cells were treated with FIR for 10 min, 20 min, 40 min using WS™ TY101 FIR emitter (WS Far Infrared Medical Technology Co., Ltd., Taipei, Taiwan). The top emitter was set at a height of 25 cm above the surface of the cells. After FIR treatment, the cells were collected at 0 h, 2 h, 4 h, 6 h, 24 h, and 48 h, and then the expression of HO-1 was analyzed by western blot and quantified by laser densitometry. […]
U937 cells were classified into 10 groups (F, T, TF, STF, HTF, NTF, S, H, N, or C) according to the combination of different treatment, and the experimental conditions of groups are listed in Table 2. […] After 1 hour of incubation, nonadherent monocytes were removed by PBS washing and the radioactivity associated with adherent cells were quantified by scintillation spectrometry after lysis with 0.2% SDS/0.2 N NaOH. Additionally, the expression of HO-1 was analyzed by western blot and quantified by laser densitometry. […]

As to `C=Cc1c2[n-]c(c1C)/C=c1\[n-]/c(c(C)c1C=C)=C\c1[n-]c(c(CCC(=O)O)c1C)/C=c1\[n-]c(c(C)c1CCC(=O)O)=C2.[Sn+4]` [SnPP, tin protoporphyrin], the “FIR-induced inhibitory effect of VCAM-1 expression” value in test [1] (TNF-α 100 ng/ml + 40 min FIR, SnPP 10 μM (group 3) and 20 μM (group 4), higher expression at 20 μM) was “reversed”. The “expression of VCAM-1” value in test [1] (single treatment with SnPP 20 μM, without pre-treatment with TNF-α (group 6)) is “did not induce”. In the test with HO-1 expression, the “HO-1 expression, of that of the control cells” value is “approximately 20%”.
